Earlier results, collected in patent US20260335448A1 (priority 2022, published 2026).
Read-outs that look alike come from different tables or passages of the source.

Legend:
pseudorabies virus [1] = tested on: pseudorabies virus
melanoma = conditions: in vitro
gastric cancer = conditions: in vitro
[2] = tested on: SARS-COV-2-infected Vero/hSLAM cells; conditions: in vitro, at high concentrations
West Nile virus = conditions: in vitro
dengue virus = conditions: in vitro
leukemia = conditions: in vitro
pseudorabies virus [3] = conditions: in vivo
colon cancer = conditions: in vitro
[4] = tested on: Venezuelan equine encephalitis virus
breast cancer = conditions: in vitro
ovarian cancer = conditions: in vitro
glioblastoma = conditions: in vitro

## ivermectin
Pseudorabies virus [1]
  anti-viral activity: activity in vitro
melanoma
  anti-tumor activity: activity in vitro
Gastric cancer
  anti-tumor activity: activity in vitro
[2]
  anti-viral activity: activity in vitro
West Nile virus
  anti-viral activity: activity in vitro
Dengue virus
  anti-viral activity: activity in vitro
leukemia
  anti-tumor activity: activity in vitro
Pseudorabies virus [3]
  anti-viral activity: activity in vitro and in vivo
Colon cancer
  anti-tumor activity: activity in vitro
[4]
  anti-viral activity: activity in vitro
Breast cancer
  anti-tumor activity: activity in vitro
Ovarian cancer
  anti-tumor activity: activity in vitro
glioblastoma
  anti-tumor activity: activity in vitro
